US4950651A, “Nitroso-N-(β-chloro ethyl)-carbamoyl peptides” (priority 1981, dated 1990)
Where a name gives a salt, the structure may show the parent alone. Read-outs that look alike come from different tables or passages of the source. Where a SMILES comes first, the peptide text is derived from it. The star is where a group is joined. Carbamoyl(2-ClEt,NO) = O=NN(CCCl)C(=O)*

Key:
L-1210 leukemia = experiment: Effect on intraperitoneally implanted L-1210 leukemia in mice (Table I); format: in vivo; conditions: treatment 3 days
Source text: In table I the effect of Compound X [drawing 8] and VII on intraperitoneally implanted L-1210 leukemia is shown on mice.
Tumor inoculum = 10^6, ascites cells, i.p.
Host animal = CDF, female mice
Toxicity = on the 5th day < 4/6 mice are alive.
Evaluation = MST = average survival period
Critical limit = T/C ≥ 125, significant antitumor activity.

L1210 leukemia [1] = format: in vivo, mice
Source text: Effect of compound of formula X in combination
with pharmaceuticals in mice suffering from L1210

Lewis lung tumor = experiment: Effect on solid tumors: Lewis lung metastatizing mice tumor (i.m.); format: in vivo
Source text: (§1) (B) Lewis lung and B16 melanoma - meta-
(§2) statizing mice tumor (i.m.)
(§3) i.p. administration from the 1st day after […]

B16 melanoma = experiment: Effect on solid tumors: B16 melanoma metastatizing mice tumor (i.m.); format: in vivo
Source text: as §1, §2, §3

L1210 leukemia [2] = experiment: Relation between effect and chemical structure in mice suffering from L1210 leukemia (Table III); format: in vivo
Source text: Examination of the relation between the
effect and the chemical structure with compounds
similar to compound of formula X in mice suffering

Question: What does the source list for `O=NN(CCCl)C(=O)NCCCl` [BCNU, 1,3-bis-(β-chloro-ethyl)-1-nitroso-urea]?
Answer: Average loss of weight on the 5th day (L-1210 leukemia; dose IP 30 mg/kg): -0.8 g; MST (average survival period) (L-1210 leukemia; dose IP 30 mg/kg): > 47.0 days; MST efficiency %, T/C (L-1210 leukemia; dose IP 30 mg/kg): > 783%; Number of live mice on the 5th day (L-1210 leukemia; dose IP 30 mg/kg): 6/6; Number of live mice on the [47th] day (L-1210 leukemia; dose IP 30 mg/kg): 5; Average loss of weight on the 5th day (L-1210 leukemia; dose IP 40 mg/kg): -1.4 g; MST (average survival period) (L-1210 leukemia; dose IP 40 mg/kg): > 47.0 days; MST efficiency %, T/C (L-1210 leukemia; dose IP 40 mg/kg): > 783%; Number of live mice on the 5th day (L-1210 leukemia; dose IP 40 mg/kg): 6/6; Number of live mice on the [47th] day (L-1210 leukemia; dose IP 40 mg/kg): 5; ILS % (L1210 leukemia [1]; 5 mg/kg, day 1): 25%; ILS % (L1210 leukemia [1]; 20 mg/kg, day 1): 110%; ILS % (L1210 leukemia [1]; 1 × 10 mg/kg, day 2): 77%; ILS % (L1210 leukemia [1]; 1 × 20 mg/kg, day 3): 70%; ILS % (Lewis lung tumor; 20 mg/kg i.p.): 36%; Median surviving day (Lewis lung tumor; 20 mg/kg i.p.): 28.5 days; ILS % (Lewis lung tumor; 5 × 4 mg/kg i.p.): 19%; Median surviving day (Lewis lung tumor; 5 × 4 mg/kg i.p.): 25.0 days; ILS % (B16 melanoma; 20 mg/kg i.p.): 61%; Median surviving day (B16 melanoma; 20 mg/kg i.p.): 42.0 days; ILS % (B16 melanoma; 5 × 4 mg/kg i.p.): 31%; Median surviving day (B16 melanoma; 5 × 4 mg/kg i.p.): 34.0 days

Question: What does the source list for `O=NN(CCCl)C(=O)N[C@H]1C(O)O[C@H](CO)[C@@H](O)[C@@H]1O` (stereo partly drawn) [Chlorosoticin, 2-[3-(2-chloro-ethyl)-3-nitroso-ureido]-2-deoxy-O-glycopyranose]?
Answer: Average loss of weight on the 5th day (L-1210 leukemia; dose IP 8 mg/kg): +1.2 g; MST (average survival period) (L-1210 leukemia; dose IP 8 mg/kg): 9.0 days; MST efficiency %, T/C (L-1210 leukemia; dose IP 8 mg/kg): 150%; Number of live mice on the 5th day (L-1210 leukemia; dose IP 8 mg/kg): 6/6; Average loss of weight on the 5th day (L-1210 leukemia; dose IP 16 mg/kg): -0.8 g; MST (average survival period) (L-1210 leukemia; dose IP 16 mg/kg): 20.5 days; MST efficiency %, T/C (L-1210 leukemia; dose IP 16 mg/kg): 342%; Number of live mice on the 5th day (L-1210 leukemia; dose IP 16 mg/kg): 6/6; Average loss of weight on the 5th day (L-1210 leukemia; dose IP 32 mg/kg): -1.2 g; MST (average survival period) (L-1210 leukemia; dose IP 32 mg/kg): > 47.0 days; MST efficiency %, T/C (L-1210 leukemia; dose IP 32 mg/kg): > 783%; Number of live mice on the 5th day (L-1210 leukemia; dose IP 32 mg/kg): 5/6; Number of live mice on the [47th] day (L-1210 leukemia; dose IP 32 mg/kg): 3; Average loss of weight on the 5th day (L-1210 leukemia; dose IP 48 mg/kg): -1.3 g; MST (average survival period) (L-1210 leukemia; dose IP 48 mg/kg): 8.5 days; MST efficiency %, T/C (L-1210 leukemia; dose IP 48 mg/kg): 142%; Number of live mice on the 5th day (L-1210 leukemia; dose IP 48 mg/kg): 6/6

Question: Which ILS % (L1210 leukemia [2]; 15 mg/kg) does the source give for `CC(C)[C@H](NC(=O)[C@@H]1CCCN1C(=O)[C@H](CCCCN)NC(=O)CNC(=O)N(CCCl)N=O)C(N)=O` [XII, α-N-nitroso-N-(β-chloro-ethyl)-carbamoyl-glycyl-lysyl-prolyl-valine-amide-hydrochloride] ({Carbamoyl(2-ClEt,NO)}-GKPV-NH2) here?
Answer: The ILS % was 20%.

Question: What about the ILS % (L1210 leukemia [2]; 45 mg/kg) of the same compound?
Answer: Its ILS % is 10%.

Question: What about the ILS % (L1210 leukemia [2]; 100 mg/kg) of the same compound?
Answer: The ILS % was 35%.

Question: And the ILS % (L1210 leukemia [2]; 150 mg/kg)?
Answer: The ILS % was 230%.

Question: `O=P1(N(CCCl)CCCl)NCCCO1` (stereo not drawn) [cyclophosphamide] was tested. Which ILS % (L1210 leukemia [1]; 1 × 50 mg/kg, day 2) did it give?
Answer: Its ILS % is 44%.

Question: Which ILS % (L1210 leukemia [1]; 1 × 50 mg/kg, day 2) does the source give for `O[C@H]([C@H](O)[C@@H](O)CBr)[C@H](O)CBr` [dibromodulcitol] here?
Answer: The ILS % was 0%.
